Common to all, as to assay: ≥ marks a high value that may be exact or a test limit, other limits are often not marked, values filed in µg/mL are converted to µM
Experiment [1] concerns Lacinutrix algicola AKS293T.
Experiment [2] concerns Enterobacter cloacae ATCC 13047.
Experiment [3] deals with Escherichia coli DH5alpha.
The subject of experiment [4] is Listeria monocytogenes ATCC 15313.
For experiment [5], the system named is Flavobacterium sp. PAMC 22217.
For experiment [6], the system named is Streptococcus pyogenes ATCC 19615.
Experiment [7] deals with Shigella sonnei ATCC 29930.
The subject of experiment [8] is Burkholderia cepacia ATCC 25416.
Experiment [9] has as its system Enterococcus faecalis ATCC 29212.
Experiment [10] has as its system Candida tropicalis ATCC 20115.
The test system of experiment [11] is Psychrobacter sp. PAMC 21119.
Experiment [12] has as its system Pseudomonas aeruginosa ATCC 15442.
In experiment [13] the test system is Candida glabrata ATCC 2001.
Experiment [14] relates to Staphylococcus aureus ATCC 33591.
Experiment [15] has as its system Pseudomonas aeruginosa H103.
For experiment [16], the system named is Pseudomonas aeruginosa 213.
The subject of experiment [17] is Pseudomonas aeruginosa LES400.
Experiment [18] concerns Staphylococcus aureus ATCC 25923.
The subject of experiment [19] is Escherichia coli ESBL 63103.
Experiment [20] relates to Staphylococcus aureus C623.
The subject of experiment [21] is Candida albicans C627.
Experiment [22] concerns Enterococcus faecium mic80.

The structures appear in SMILES notation. Values after ≈ are worked out from the molar mass of the structure shown. Bounds are passed on as bounds.

As to `CC[C@H](C)[C@H](NC(=O)CNC(=O)[C@H](CCCN=C(N)N)NC(=O)[C@H](Cc1ccccc1)NC(=O)[C@H](CC(C)C)NC(=O)[C@H](Cc1cnc[nH]1)NC(=O)CNC(=O)[C@H](Cc1ccccc1)NC(=O)[C@@H](N)Cc1ccccc1)C(=O)N[C@H](C(=O)N[C@@H](CC(N)=O)C(=O)N[C@H](C(=O)NCC(=O)N[C@@H](CCCCN)C(=O)N[C@@H](Cc1cnc[nH]1)C(=O)N[C@H](C(=O)N[C@@H](Cc1cnc[nH]1)C(=O)NCC(=O)N[C@@H](CC(C)C)C(=O)N[C@@H](CC(C)C)C(=O)N[C@@H](CO)C(=O)NCC(N)=O)[C@@H](C)CC)C(C)C)[C@@H](C)CC` [FFGHLFRGIINVGKHIHGLLSG], the MIC (commonly the lowest concentration found to suppress growth) was 1.25 µM (≈ 3.02 µg/mL) in [1]; 25 µM (≈ 60.5 µg/mL) in experiment [2]; 5 µM (≈ 12.1 µg/mL) in [3]; 5 µM (≈ 12.1 µg/mL) in [4]; 1.5 µM (≈ 3.63 µg/mL) in [5]; 2.5 µM (≈ 6.05 µg/mL) in experiment [6]. In addition, the minimum inhibitory concentration (MIC) in [7] is 5 µM (≈ 12.1 µg/mL); in experiment [8], at least 50 µM; in [9], 25 µM (≈ 60.5 µg/mL); in experiment [10], 5 µM (≈ 12.1 µg/mL); in experiment [11] it was 1.25 µM (≈ 3.02 µg/mL); in experiment [12], at least 50 µM. Further, the figures for the minimum inhibitory concentration (MIC) in experiment [13] and in experiment [14] were at least 50 µM and 5 µM (≈ 12.1 µg/mL), respectively.

Regarding `NCCCC[C@H](NC(=O)[C@@H](N)CCCN=C(N)N)C(=O)N[C@@H](CCCN=C(N)N)C(=O)N[C@@H](Cc1c[nH]c2ccccc12)C(=O)N[C@@H](Cc1c[nH]c2ccccc12)C(=O)N[C@@H](Cc1c[nH]c2ccccc12)C(=O)N[C@@H](Cc1c[nH]c2ccccc12)C(=O)N[C@@H](Cc1ccccc1)C(=O)N[C@@H](CCCN=C(N)N)C(=O)O` [RKRWWWWFR], the MIC came out at 1.33 µM (≈ 2 µg/mL) in experiment [15]; 5.31 µM (≈ 8 µg/mL) in experiment [16]; 21.2 µM (≈ 32 µg/mL) in [17]; 2.65 µM (≈ 4 µg/mL) in experiment [18]; 5.31 µM (≈ 8 µg/mL) in experiment [19]; 1.33 µM (≈ 2 µg/mL) in experiment [20]. In addition, the MIC in experiment [21] and in experiment [22] was 5.31 µM (≈ 8 µg/mL) each time.

Values taken from DBAASP.
